According to patent publication US20050261246A1, “Methods for treating inflammatory and autoimmune diseases” (priority 2004, published 2005):

Tested on: CAIA mice
Experiment: Collagen type II antibody-induced arthritis (CAIA) mouse model
Type: in vivo
Protocol: FIG. 9A-H the effect of SNS on hind paw swelling in CAIA mice. A and E: Day 0, B and F: Day 7, C: Day 10 in PBS-treated CAIA, G: Day 10 in SNS-treated CAIA after 3 injections, D: Day 12 in PBS-treated mice, and H: Day 12 in SNS-treated CAIA mice after five injections. SNS treatment was started on day 7 after anti-collagen type II mAb injection and i.p. injections of SNS were continued for 5 consecutive days at a dose of 5 mg/kg.
FIG. 10 is a graph of the data (exemplified in FIG. 9) on CAIA progression and effect of SNS on foot pad measurements in CAIA mice. Solid square: PBS-treated CAIA group (n=5), closed triangle: SNS-treated CAIA group (n=5). SNS treatment (i.p.) was started on day 7 after anti-collagen type II mAb injection, and SNS injections were continued for 5 consecutive days at a dose of 5 mg/kg. Values represent mean±S.E.M. P<0.0001. Statistical analysis was performed using t-test.
Sections of ankle joints were stained with hematoxylin and eosin (original magnification, ×10) on day 21 after mAb injection. SNS treatment (i.p.) was started on day 7 after anti-collagen type II mAb injection, and SNS injections were continued for 5 consecutive days at a dose of 5 mg/kg. Representative joint sections in non-CAIA group (A and D), PBS-treated CAIA (B and E), and SNS-treated CAIA (C and F) are shown at magnifications of ×10 and ×40, respectively.
Collagen-induced arthritis (CIA) is an experimental model for rheumatoid arthritis. In this model, antibodies against type II collagen are critical for the pathogenesis of arthritis. […] This model system has been used for investigating underlying cellular and molecular mechanisms during the effector phase of CIA (1).
FIGS. 9-10 show CAIA progression and the effect of SNS on hind paw swelling in CAIA mice. […] A and E: Day 0 (mAb immunization), B and F: Day 7 after antibody injection, C. Day10 after immunization in PBS-treated CAIA, G: Day 10 after immunization in SNS-treated CAIA after three SNS injections, D: Day 12 after immunization in PBS-treated CAIA mice, and […]: Day 12 after immunization in SNS-treated CAIA mice after five SNS injections. Ib. […] Solid square: control CAIA group treated with PBS (n=5), closed triangle: sodium narcistatin-treated CAIA group (n=5). Values represent mean±S.E.M. p<0.0001 vs. control CAIA group.

Which results are given for `O=C1N[C@@H]2C(=C[C@H](O)[C@H]3OP(=O)(O)O[C@H]32)c2cc3c(c(O)c21)OCO3` [SNS, sodium narcistatin]?
joint swelling after the fifth injection (CAIA mice, 5 mg/kg i.p.): swelling disappeared; joint swelling after the third injection (CAIA mice, 5 mg/kg i.p.): reduced joint swelling; ankle width (CAIA mice, 5 mg/kg i.p. 5 consecutive days from day 7, vs saline-treated, P<0.0001): significant decrease; histology of ankle joints: inflammatory infiltration, cartilage and bone destruction (CAIA mice, day 21, hematoxylin and eosin): very little inflammatory infiltration to ankle joints and virtually no cartilage and bone destruction; toxicity in CAIA study (at the dosage used): toxic to the animals; toxicity, SNS treatment only (mice that only received SNS): did not observe toxicity; toxicity, combination of SNS and LPS treatment (mouse, in vivo): appeared to increase toxicity
